Experimental findings from US10052320B2, “Substituted quinoxalines as FGFR kinase inhibitors” (ASTEX THERAPEUTICS LIMITED, priority 2011, dated 2018) are described below.

One data set addresses FGFR4 (h) (Homo sapiens, UniProt P22455). In words: FGFR4 (enzymatic assay), TR-FRET. The conditions noted are these: read-out: FGFR 4 pIC50 (converted). In kind it is biochemical. Here is the method:
In a final reaction volume of 30 μL, FGFR4 (h) (60 ng/ml) was incubated with 50 mM HEPES pH 7.5, 6 mM MnCl2, 1 mM DTT, 0.1 mM Na3VO4, 0.01% Triton-X-100, 500 nM Btn-Flt3 and 5 μM ATP in the presence of compound (1% DMSO final). […] Time-Resolved Fluorescence Resonance Energy Transfer (TR-FRET) signal (ex340 nm. Em 620 nm, em 655 nm) was measured afterwards and results are expressed in RFU (Relative Fluorescence Units).

In another data set the target is FGFR1 (h) (Homo sapiens, UniProt P11362). In words: FGFR1 (enzymatic assay), TR-FRET. The following applies: read-out: FGFR 1 pIC50 (converted). It is filed as biochemical. Here is the method: In a final reaction volume of 30 μL, FGFR1 (h) (25 ng/ml) was incubated with 50 mM HEPES pH 7.5, 6 mM MnCl2, 1 mM DTT, 0.1 mM Na3VO4, 0.01% Triton-X-100, 500 nM Btn-Flt3 and 5 μM ATP in the presence of compound (1% DMSO final). […] Time-Resolved Fluorescence Resonance Energy Transfer (TR-FRET) signal (ex340 nm. Em 620 nm, em 655 nm) was measured afterwards and results are expressed in RFU (Relative Fluorescence Units).
FGFR1 (h), sequence (P11362 22-822): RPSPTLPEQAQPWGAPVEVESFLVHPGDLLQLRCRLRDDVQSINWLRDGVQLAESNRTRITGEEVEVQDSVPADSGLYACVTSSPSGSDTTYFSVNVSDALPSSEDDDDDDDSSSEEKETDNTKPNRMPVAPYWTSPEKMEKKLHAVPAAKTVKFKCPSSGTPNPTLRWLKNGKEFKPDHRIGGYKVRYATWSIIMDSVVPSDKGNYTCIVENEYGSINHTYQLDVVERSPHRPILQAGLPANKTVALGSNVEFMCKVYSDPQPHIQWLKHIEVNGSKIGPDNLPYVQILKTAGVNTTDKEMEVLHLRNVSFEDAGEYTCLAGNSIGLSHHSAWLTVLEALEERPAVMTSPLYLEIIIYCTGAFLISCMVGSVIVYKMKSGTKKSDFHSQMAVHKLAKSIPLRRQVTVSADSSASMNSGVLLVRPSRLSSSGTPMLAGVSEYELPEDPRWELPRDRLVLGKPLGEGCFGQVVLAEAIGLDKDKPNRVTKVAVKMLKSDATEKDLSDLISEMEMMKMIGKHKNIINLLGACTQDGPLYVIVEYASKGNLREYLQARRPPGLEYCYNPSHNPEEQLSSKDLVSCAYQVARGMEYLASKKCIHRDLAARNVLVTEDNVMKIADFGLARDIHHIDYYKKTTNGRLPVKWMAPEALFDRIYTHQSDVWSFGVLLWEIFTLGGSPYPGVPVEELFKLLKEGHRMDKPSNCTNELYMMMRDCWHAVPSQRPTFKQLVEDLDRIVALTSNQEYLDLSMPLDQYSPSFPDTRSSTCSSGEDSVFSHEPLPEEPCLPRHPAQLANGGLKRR

Data set [1] deals with T1, Ba/F3-Flt3-transfected cells (Homo sapiens, UniProt P36888, cells depend on it, form not given).
T1 sequence (P36888 1-993): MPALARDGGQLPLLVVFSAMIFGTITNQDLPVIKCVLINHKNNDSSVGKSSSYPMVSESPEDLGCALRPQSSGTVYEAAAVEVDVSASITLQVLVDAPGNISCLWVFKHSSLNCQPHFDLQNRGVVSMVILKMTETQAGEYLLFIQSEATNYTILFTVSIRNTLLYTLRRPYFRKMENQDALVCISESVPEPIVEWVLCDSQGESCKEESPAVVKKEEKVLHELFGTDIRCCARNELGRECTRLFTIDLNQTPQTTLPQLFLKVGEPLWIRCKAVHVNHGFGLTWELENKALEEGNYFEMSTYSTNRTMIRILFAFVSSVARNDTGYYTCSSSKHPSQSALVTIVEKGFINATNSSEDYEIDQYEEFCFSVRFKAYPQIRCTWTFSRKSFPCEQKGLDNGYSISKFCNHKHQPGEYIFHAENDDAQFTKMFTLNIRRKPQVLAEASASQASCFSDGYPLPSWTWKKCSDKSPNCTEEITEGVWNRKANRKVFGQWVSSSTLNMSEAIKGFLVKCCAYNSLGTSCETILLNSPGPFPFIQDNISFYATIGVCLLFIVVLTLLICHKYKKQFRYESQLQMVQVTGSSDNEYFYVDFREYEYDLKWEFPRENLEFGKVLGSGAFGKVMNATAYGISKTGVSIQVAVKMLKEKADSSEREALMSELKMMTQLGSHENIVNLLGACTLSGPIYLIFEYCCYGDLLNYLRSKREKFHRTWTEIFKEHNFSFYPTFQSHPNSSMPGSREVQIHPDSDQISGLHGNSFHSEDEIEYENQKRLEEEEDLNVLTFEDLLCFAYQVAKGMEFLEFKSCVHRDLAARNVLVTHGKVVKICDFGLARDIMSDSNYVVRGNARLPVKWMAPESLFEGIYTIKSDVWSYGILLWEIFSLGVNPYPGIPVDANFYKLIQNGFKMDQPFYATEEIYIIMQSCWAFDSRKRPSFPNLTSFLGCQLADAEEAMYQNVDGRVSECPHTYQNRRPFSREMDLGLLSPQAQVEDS
Nature of the data set: Ba/F3-Flt3 (minus IL3) cellular proliferation assay, Alamar Blue. In kind it is cell-based. The following applies: for BAF3-FLT3 (MIN IL3) 96 well pIC50: minus IL3, 96 well.

The target in data set [2] is Ba/F3-FGFR1-transfected cells (Homo sapiens, UniProt P11362). Nature of the data set: Ba/F3-FGFR1 (minus IL3) cellular proliferation assay, Alamar Blue. In kind it is cell-based. The following applies: for BAF3-FGFR 1 (MIN IL3) 384 well pIC50: minus IL3, 384 well. Put shortly: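 Ba/F3 cells transfected with FGFR1 were incubated with compound in RPMI-1640/10% FBS for 24 h at 37 °C, 5% CO2. Alamar Blue (resazurin) was then added for 4 h and fluorescence was read at ex 540/em 590 nm. The counterscreen used the same conditions plus 10 ng/ml murine IL3.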
Ba/F3-FGFR1-transfected cells, sequence (P11362 whole entry, change not shown): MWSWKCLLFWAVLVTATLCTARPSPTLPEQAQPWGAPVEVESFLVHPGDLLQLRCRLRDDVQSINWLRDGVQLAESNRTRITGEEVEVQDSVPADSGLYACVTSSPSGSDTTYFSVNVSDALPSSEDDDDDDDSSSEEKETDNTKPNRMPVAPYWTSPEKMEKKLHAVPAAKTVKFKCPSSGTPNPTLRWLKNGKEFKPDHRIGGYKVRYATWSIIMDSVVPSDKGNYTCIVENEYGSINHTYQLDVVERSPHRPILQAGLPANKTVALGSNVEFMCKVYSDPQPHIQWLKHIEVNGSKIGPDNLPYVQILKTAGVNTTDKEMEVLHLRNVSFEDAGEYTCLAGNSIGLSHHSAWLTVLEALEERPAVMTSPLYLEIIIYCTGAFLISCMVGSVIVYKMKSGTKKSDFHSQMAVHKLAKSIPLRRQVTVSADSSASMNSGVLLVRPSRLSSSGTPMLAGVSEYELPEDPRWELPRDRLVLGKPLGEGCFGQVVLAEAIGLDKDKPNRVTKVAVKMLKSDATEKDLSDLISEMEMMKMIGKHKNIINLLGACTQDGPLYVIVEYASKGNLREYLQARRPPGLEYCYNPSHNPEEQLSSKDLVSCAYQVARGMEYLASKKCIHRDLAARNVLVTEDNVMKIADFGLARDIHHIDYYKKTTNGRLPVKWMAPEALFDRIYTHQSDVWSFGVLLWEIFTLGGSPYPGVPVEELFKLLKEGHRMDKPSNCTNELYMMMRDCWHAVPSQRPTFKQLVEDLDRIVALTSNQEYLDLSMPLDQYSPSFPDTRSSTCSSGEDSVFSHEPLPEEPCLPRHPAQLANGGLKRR

FGFR4 (h), sequence (P22455 22-802): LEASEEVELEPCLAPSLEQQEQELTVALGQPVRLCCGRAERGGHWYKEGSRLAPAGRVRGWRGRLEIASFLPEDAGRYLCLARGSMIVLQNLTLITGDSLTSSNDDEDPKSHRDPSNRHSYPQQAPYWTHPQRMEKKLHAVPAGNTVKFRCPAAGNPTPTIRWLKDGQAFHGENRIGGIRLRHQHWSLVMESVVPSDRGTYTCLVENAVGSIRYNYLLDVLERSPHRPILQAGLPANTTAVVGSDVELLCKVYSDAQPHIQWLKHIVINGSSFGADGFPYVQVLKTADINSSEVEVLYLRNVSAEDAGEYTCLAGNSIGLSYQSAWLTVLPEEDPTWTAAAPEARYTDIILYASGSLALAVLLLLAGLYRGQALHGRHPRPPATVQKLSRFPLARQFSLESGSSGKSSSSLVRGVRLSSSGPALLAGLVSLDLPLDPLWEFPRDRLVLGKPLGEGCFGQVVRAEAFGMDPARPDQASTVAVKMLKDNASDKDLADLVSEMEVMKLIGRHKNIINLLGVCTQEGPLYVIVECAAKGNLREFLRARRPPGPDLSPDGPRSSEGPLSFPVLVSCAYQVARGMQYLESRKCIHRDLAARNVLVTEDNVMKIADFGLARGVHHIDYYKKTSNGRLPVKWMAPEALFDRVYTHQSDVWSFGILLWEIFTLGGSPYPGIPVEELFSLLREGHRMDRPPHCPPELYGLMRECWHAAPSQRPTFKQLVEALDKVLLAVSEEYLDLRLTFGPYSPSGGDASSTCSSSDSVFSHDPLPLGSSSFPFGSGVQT

The compound `COc1cc(OC)cc(N(CC#Cc2ncccn2)c2ccc3ncc(-c4cccnc4)nc3c2)c1` [Compound 2] displayed a melting point of 184 °C. In addition, the IC50 at FGFR4 (h) is 195 nM. For the same compound, the IC50 at FGFR1 (h) is 83.2 nM. Further, in data set [1] (minus IL3), the “BAF3-FLT3 (MIN IL3) 384 well pIC50” value is recorded as less than 5. Moreover, the “BAF3-FGFR 1 (MIN IL3) 384 well pIC50” value in data set [2] was determined as 6.8.

`COc1cc(OC)cc(N(CC2CC2)c2ccc3ncc(N4CCN(C)CC4)nc3c2)c1` [Compound 64]: the melting point stood at 92 °C. Further, on FGFR4 (h), the IC50 was 2880 nM. Besides, the IC50 at FGFR1 (h) was 437 nM. Moreover, the “BAF3-FLT3 (MIN IL3) 96 well pIC50” value in data set [1] is listed as roughly 5.12. The “BAF3-FLT3 (MIN IL3) 384 well pIC50” value in data set [1] (minus IL3, 384 well) is reported as less than 5. For the same compound, the “BAF3-FGFR 1 (MIN IL3) 384 well pIC50” value in data set [2] is less than 5.

As for `COc1cc(OC)cc(N(CCO)c2ccc3ncc(N4CCC(CN)CC4)nc3c2)c1` [Compound 84], the melting point was 159 °C. At FGFR4 (h), the IC50 is 617 nM. Also, the IC50 at FGFR1 (h) was 44.7 nM. Besides, the “BAF3-FLT3 (MIN IL3) 384 well pIC50” value in data set [1] (minus IL3) is recorded as less than 5. Also, the “BAF3-FGFR 1 (MIN IL3) 384 well pIC50” value in data set [2] was 5.05.

The compound `COc1cc(OC)cc(N(CCCO)c2ccc3ncc(-c4cccnc4F)nc3c2)c1` [Compound 149] had a melting point of 115 °C. Besides, at FGFR4 (h), the IC50 is 166 nM. Besides, at FGFR1 (h), the IC50 was 60.3 nM. The “BAF3-FLT3 (MIN IL3) 384 well pIC50” value in data set [1] (minus IL3) is recorded as less than 5. Besides, in data set [2], the “BAF3-FGFR 1 (MIN IL3) 384 well pIC50” value came out at 5.32.

Compound `COc1cc(OC)cc(N(CCO)c2ccc3ncc(C4=CCN(C(=O)OC(C)(C)C)CC4)nc3c2)c1` [Compound 178] yielded a melting point of 150 °C. In addition, the IC50 at FGFR4 (h) was 56.2 nM. Also, the IC50 on FGFR1 (h) is 5.13 nM. Further, the “BAF3-FLT3 (MIN IL3) 384 well pIC50” value in data set [1] (minus IL3) is less than 5. The “BAF3-FGFR 1 (MIN IL3) 384 well pIC50” value in data set [2] came out at 6.07.

As to `COc1cc(OC)cc(N(CC2CC2)c2ccc3ncc(-c4cnc5[nH]ccc5c4)nc3c2)c1` [Compound 88], the melting point turned out to be 234 °C. Besides, the IC50 at FGFR4 (h) was greater than 10000 nM. The IC50 at FGFR1 (h) was 575 nM. Also, the “BAF3-FLT3 (MIN IL3) 96 well pIC50” value in data set [1] is listed as less than 5. Also, the “BAF3-FLT3 (MIN IL3) 384 well pIC50” value in data set [1] (minus IL3, 384 well) is less than 5. Moreover, the “BAF3-FGFR 1 (MIN IL3) 384 well pIC50” value in data set [2] was less than 5.

Consider `COc1cc(OC)cc(N(CCCNCC(F)(F)F)c2ccc3ncc(-c4ccnc(Cl)c4)nc3c2)c1` [Compound 145], for which the melting point was found to be 130 °C. Moreover, on FGFR4 (h), the IC50 is 871 nM. Moreover, the IC50 at FGFR1 (h) was 115 nM. Besides, in data set [1] (minus IL3), the “BAF3-FLT3 (MIN IL3) 384 well pIC50” value is less than 5. Further, in data set [2], the “BAF3-FGFR 1 (MIN IL3) 384 well pIC50” value is on record as less than 5.

The compound `CO/N=C(\C)c1cnc2ccc(N(CCO)c3cc(OC)cc(OC)c3)cc2n1` [Compound 29] registered a melting point of 149 °C. Besides, the IC50 at FGFR4 (h) is 234 nM. On FGFR1 (h), the IC50 is 55 nM. Further, the “BAF3-FLT3 (MIN IL3) 384 well pIC50” value in data set [1] (minus IL3) is on record as less than 5. Moreover, the “BAF3-FGFR 1 (MIN IL3) 384 well pIC50” value in data set [2] worked out at 6.41.

Regarding `COc1cc(OC)cc(N(CCCNCC(F)(F)F)c2ccc3ncc(-c4ccnc(C(=O)NCCCCCO)c4)nc3c2)c1` [Compound 150], the melting point worked out at 95 °C. For the same compound, the IC50 on FGFR4 (h) is 224 nM. The IC50 on FGFR1 (h) is 91.2 nM. Also, the “BAF3-FLT3 (MIN IL3) 384 well pIC50” value in data set [1] (minus IL3) was less than 5. The “BAF3-FGFR 1 (MIN IL3) 384 well pIC50” value in data set [2] is reported as 5.16.

Turning to `COc1cc(OC)cc(N(CCNC(C)C)c2ccc3ncc(C(=O)NCCCN4CCCCC4)nc3c2)c1` [Compound 182], the melting point was 121 °C. Further, the IC50 at FGFR4 (h) was 603 nM. Moreover, the IC50 on FGFR1 (h) was 19.5 nM. Besides, in data set [1] (minus IL3), the “BAF3-FLT3 (MIN IL3) 384 well pIC50” value is on record as less than 5. For the same compound, the “BAF3-FGFR 1 (MIN IL3) 384 well pIC50” value in data set [2] turned out to be 5.89.

As to `COc1cc(OC)cc(N(CC2CC2)c2ccc3ncc(-c4ccnc(N5CCOCC5)c4)nc3c2)c1` [Compound 90], the melting point came to 162 °C. The IC50 on FGFR4 (h) was greater than 10000 nM. Also, on FGFR1 (h), the IC50 was 589 nM. Besides, the “BAF3-FLT3 (MIN IL3) 96 well pIC50” value in data set [1] is less than 5. Further, the “BAF3-FGFR 1 (MIN IL3) 96 well pIC50” value in data set [2] (minus IL3, 96 well) stood at 5.06.

For orientation: melting point means the temperature, or range, at which the solid turns liquid.
